Our source for the IC50, Efficacy and EC50 values is ChEMBL document CHEMBL1138857, “Quinol-4-ones as steroid A-ring mimetics in nonsteroidal dissociated glucocorticoid agonists” (J Med Chem, 2006).

What is called IC50 is the concentration needed to halve the response being measured. Higher therefore signals weaker potency. The term EC50 denotes the concentration at which the effect is half-maximal.

The target of assay [1] is T1, Progesterone receptor (Homo sapiens, UniProt P06401).
T1 sequence (P06401 whole entry): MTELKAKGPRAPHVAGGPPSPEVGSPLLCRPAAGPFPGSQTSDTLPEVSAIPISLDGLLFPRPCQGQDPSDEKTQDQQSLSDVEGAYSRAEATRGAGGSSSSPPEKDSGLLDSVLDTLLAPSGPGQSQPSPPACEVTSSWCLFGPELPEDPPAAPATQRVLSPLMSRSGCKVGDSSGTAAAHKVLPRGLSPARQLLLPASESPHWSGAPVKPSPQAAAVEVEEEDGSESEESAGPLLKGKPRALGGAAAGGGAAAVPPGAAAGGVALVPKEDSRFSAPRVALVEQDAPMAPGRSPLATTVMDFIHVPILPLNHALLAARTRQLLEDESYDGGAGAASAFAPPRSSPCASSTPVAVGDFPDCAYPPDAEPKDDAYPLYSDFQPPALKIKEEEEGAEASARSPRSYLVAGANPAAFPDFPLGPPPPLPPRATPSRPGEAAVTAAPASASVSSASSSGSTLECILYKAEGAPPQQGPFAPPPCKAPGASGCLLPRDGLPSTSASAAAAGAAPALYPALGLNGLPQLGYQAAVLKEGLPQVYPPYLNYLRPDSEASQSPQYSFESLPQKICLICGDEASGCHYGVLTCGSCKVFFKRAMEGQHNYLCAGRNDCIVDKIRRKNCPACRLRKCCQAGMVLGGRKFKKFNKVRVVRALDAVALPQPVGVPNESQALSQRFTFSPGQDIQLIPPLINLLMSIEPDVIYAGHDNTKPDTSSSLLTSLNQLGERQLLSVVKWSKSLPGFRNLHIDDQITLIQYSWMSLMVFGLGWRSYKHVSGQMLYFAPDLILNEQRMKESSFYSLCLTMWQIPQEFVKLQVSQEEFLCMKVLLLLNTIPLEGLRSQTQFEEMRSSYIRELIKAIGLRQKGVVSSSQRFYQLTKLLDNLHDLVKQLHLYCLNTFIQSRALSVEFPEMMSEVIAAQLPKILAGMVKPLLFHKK
Description: Inhibition of tetramethylrhodamine labeled RU486 binding to PR by FP assay.

Assay [2] concerns the target T2, Mineralocorticoid receptor (Homo sapiens, UniProt P08235).
T2 sequence (P08235 whole entry): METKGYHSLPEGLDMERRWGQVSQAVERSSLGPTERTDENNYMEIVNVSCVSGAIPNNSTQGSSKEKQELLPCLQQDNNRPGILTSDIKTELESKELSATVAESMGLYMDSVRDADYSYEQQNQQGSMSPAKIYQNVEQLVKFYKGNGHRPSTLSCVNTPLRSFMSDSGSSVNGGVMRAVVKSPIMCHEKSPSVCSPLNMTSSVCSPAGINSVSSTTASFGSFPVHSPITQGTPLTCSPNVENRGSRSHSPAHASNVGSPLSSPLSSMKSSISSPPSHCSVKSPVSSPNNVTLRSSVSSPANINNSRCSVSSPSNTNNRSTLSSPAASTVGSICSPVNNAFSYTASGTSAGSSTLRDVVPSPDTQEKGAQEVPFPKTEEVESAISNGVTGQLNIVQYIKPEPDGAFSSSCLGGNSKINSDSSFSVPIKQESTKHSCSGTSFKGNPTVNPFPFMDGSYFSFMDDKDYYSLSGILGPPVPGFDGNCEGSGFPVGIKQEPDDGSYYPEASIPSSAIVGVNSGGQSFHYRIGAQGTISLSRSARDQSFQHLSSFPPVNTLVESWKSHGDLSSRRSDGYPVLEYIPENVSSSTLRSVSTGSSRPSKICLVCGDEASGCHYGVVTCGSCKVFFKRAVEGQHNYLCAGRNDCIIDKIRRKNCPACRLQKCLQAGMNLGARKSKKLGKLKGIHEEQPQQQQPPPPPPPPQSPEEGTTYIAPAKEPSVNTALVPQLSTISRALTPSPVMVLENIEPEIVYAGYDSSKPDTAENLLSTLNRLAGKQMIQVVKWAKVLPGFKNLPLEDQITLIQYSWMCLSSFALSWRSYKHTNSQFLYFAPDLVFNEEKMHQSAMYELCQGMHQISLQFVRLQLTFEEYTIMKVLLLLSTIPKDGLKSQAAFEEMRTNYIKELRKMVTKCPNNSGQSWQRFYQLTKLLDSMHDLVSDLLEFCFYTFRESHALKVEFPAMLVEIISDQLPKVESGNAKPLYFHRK
Description: Inhibition of tetramethylrhodamine labeled dexamethasone binding to MR by FP assay.

Assay [3] addresses T3, Glucocorticoid receptor (Homo sapiens, UniProt P04150).
T3 sequence (P04150 whole entry): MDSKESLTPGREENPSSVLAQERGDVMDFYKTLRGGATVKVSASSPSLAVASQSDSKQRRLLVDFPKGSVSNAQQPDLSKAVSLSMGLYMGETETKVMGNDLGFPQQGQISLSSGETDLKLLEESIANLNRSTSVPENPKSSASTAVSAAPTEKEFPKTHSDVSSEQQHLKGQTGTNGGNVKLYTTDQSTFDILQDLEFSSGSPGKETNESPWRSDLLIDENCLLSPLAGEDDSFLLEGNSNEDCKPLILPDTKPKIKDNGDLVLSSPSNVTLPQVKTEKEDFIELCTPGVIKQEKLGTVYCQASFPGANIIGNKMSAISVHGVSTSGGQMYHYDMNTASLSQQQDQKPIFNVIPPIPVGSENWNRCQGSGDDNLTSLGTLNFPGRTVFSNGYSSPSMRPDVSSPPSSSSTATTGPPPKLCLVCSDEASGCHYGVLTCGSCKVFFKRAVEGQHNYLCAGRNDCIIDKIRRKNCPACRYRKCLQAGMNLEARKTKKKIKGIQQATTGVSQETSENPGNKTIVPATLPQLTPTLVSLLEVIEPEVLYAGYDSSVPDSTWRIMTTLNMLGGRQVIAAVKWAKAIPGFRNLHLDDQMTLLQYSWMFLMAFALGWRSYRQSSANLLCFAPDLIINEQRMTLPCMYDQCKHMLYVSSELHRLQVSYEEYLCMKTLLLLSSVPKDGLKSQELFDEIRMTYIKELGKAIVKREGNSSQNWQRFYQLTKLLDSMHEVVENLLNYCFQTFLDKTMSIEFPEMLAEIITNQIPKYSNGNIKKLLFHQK

For assay [4], the system named is HFF. Description: Inhibition of IL1-stimulated IL6 production in HFF cells. The assay is classed as functional, cell-based. As to conditions: Homo sapiens.
Assay [5] has as its system HFF. The experiment in a line: Inhibition of IL1-stimulated IL6 production in HFF cells relative to Dexamethasone. The assay is classed as functional, Homo sapiens.
In assay [6] the test system is HFF. The experiment in a line: Induction of aromatase activity in HFF cells assessed as production of beta estradiol by aromatase assay. Format: functional, cell-based. As to conditions: Homo sapiens.
For assay [7], the system named is HFF. Description: Induction of aromatase activity in HFF cells assessed as production of beta estradiol by aromatase assay relative to Dexamethasone. Format: functional, Homo sapiens.
In assay [8] the test system is HeLa. Description: Activation of MMTV in HeLa cells measured by luciferase activity. The assay is classed as functional, cell-based. The note with it: Homo sapiens.
The subject of assay [9] is HeLa. Description: Activation of MMTV in HeLa cells measured by luciferase activity relative to Dexamethasone. The assay is classed as functional, Homo sapiens.

As for `COc1ccc(F)cc1C(C)(C)CC(O)(CN1CCCc2ccccc21)C(F)(F)F` (stereo unspecified), the IC50 was more than 2000 nM in [1], 1600 nM in assay [2] and 950 nM in assay [3].
The like results for `COc1ccc(F)cc1C(C)(C)CC(O)(Cn1cnc(=O)c2ccccc21)C(F)(F)F` (stereo unspecified) were, in that order, more than 2000 nM, more than 2000 nM and 690 nM.
The like results for `COc1ccc(F)cc1C(C)(C)CC(O)(Cn1cc(C)nc1C)C(F)(F)F` (stereo unspecified) were, in that order, more than 2000 nM, 620 nM and 650 nM.
The corresponding values for `COc1ccc(F)cc1C(C)(C)CC(O)(CN1CCC(=O)CC1)C(F)(F)F` (stereo unspecified) are more than 2000 nM, more than 2000 nM and 1400 nM.
For the molecule `COc1ccc(C)c(C(C)(C)CC(O)(Cn2ccc(=O)c3ccccc32)C(F)(F)F)c1` (stereo unspecified), the IC50 in assay [1] is 525 nM; in [2], 91 nM; in assay [4], 17 nM; in assay [3], 11 nM. Also, the Efficacy was determined as 86% in [5], 65% in [7] and 6% in assay [9]. Moreover, the EC50 in [6] was 95 nM; in [8], more than 2000 nM.
Regarding `COc1ccc(F)cc1C(C)(C)CC(O)(Cn1ccc(=O)c2cnccc21)C(F)(F)F` (stereo unspecified), the IC50 was more than 2000 nM in assay [1], 175 nM in [2], 35 nM in [4] and 34 nM in [3]. Also, the Efficacy in assay [5] amounted to 72%; in [7] it was 39%; in assay [9], 1%. In assay [8], this molecule returned an EC50 of more than 2000 nM.
For `COc1ccc(F)cc1C(C)(C)CC(O)(C(=O)Nc1ccc2c(=O)onc(C)c2c1)C(F)(F)F` (stereo unspecified), the IC50 in [1] is 22 nM; in [2], 130 nM; in assay [4], more than 2000 nM; in assay [3], 8 nM. This molecule also came in with an Efficacy in [5] of 19%.
Take `COc1ccc(F)cc1C(C)(C)CC(O)(CN1CCOCC1)C(F)(F)F` (stereo unspecified): the IC50 in assay [1], in assay [2] and in assay [3] was more than 2000 nM in each case.
On to `COc1ccc(F)cc1C(C)(C)CC(O)(CN1C[C@H](C)O[C@@H](C)C1)C(F)(F)F` (stereo partly specified), for which the IC50 in assay [1] was more than 2000 nM; in assay [2], 1500 nM; in assay [4] it was more than 2000 nM; in assay [3], 110 nM. In assay [5], this molecule returned an Efficacy of 41%.
On to `COc1ccc(F)cc1C(C)(C)CC(O)(Cn1ccc(=O)c2ncccc21)C(F)(F)F` (stereo unspecified), for which the IC50 is more than 2000 nM in assay [1], 1100 nM in assay [2], 56 nM in assay [4] and 77 nM in [3]. Also, the Efficacy in assay [5] is given as 78%; in assay [7], 41%.
In the case of `CC(C)(CC(O)(Cn1ccc(=O)c2ccccc21)C(F)(F)F)c1ccccc1` (stereo unspecified), the IC50 in [1] is 106 nM; in assay [2], 350 nM; in assay [4], 78 nM; in assay [3], 28 nM. Also, the Efficacy in assay [5] is given as 48%.
With `Cc1ccc(O)c(C(C)(C)CC(O)(Cn2ccc(=O)c3ccccc32)C(F)(F)F)c1` (stereo unspecified), the IC50 in assay [1] is 160 nM; in [2] it was 160 nM; in [4], 5.6 nM; in assay [3] it was 8 nM. This molecule had an Efficacy in assay [5] of 93%.
With `Cc1ccc(O)cc1C(C)(C)CC(O)(Cn1ccc(=O)c2ccccc21)C(F)(F)F` (stereo unspecified), the IC50 in assay [1] was more than 2000 nM; in assay [2], more than 2000 nM; in assay [3], 780 nM.
As for `Cc1noc(=O)c2ccc(NC(=O)C(O)(CC(C)(C)c3cccc4c3OCC4)C(F)(F)F)cc12` (stereo unspecified), the half-inhibitory concentration (IC50) in [2] stood at 38 nM; in assay [4], 59 nM. Besides, the Efficacy in [5] is listed as 80%; in assay [7] it was 56%; in [9], 14%. The EC50 in assay [6] was 91 nM; in assay [8], more than 2000 nM.
On to `C[C@@H]1C[C@H]2[C@@H]3CCC4=CC(=O)C=C[C@]4(C)[C@@]3(F)[C@@H](O)C[C@]2(C)[C@@]1(O)C(=O)CO` [DEXAMETHASONE], for which the IC50 is more than 2000 nM in assay [1] and 0.51 nM in assay [4]. For the same molecule, the EC50 is 1.9 nM in assay [6] and 17 nM in assay [8].
Regarding `COc1ccc(F)cc1C(C)(C)CC(O)(Cn1ccnc1)C(F)(F)F` (stereo unspecified), the IC50 in assay [1], in assay [2] and in assay [3] was more than 2000 nM in each case.
Regarding `COc1ccc(F)cc1C(C)(C)CC(O)(Cn1cnc2ccccc21)C(F)(F)F` (stereo unspecified), the IC50 is more than 2000 nM in assay [1], 775 nM in assay [2], more than 2000 nM in assay [4] and 54 nM in [3]. In [5], this molecule showed an Efficacy of 15%.
As for `COc1ccc(F)cc1C(C)(C)CC(O)(Cn1ccc(=O)cc1)C(F)(F)F` (stereo unspecified), the IC50 in [1], in assay [2] and in assay [3] was more than 2000 nM in each case.
On to `CC(C)(CC(O)(Cn1ccc(=O)c2ccccc21)C(F)(F)F)c1ccc(F)cc1O` (stereo unspecified), for which the half-maximal inhibitory concentration (IC50) in assay [1] amounted to 340 nM; in assay [2] it was 880 nM; in assay [3] it was 3 nM. Also, the Efficacy in [5] was 88%; in [7] it was 82%; in assay [9], 35%. Moreover, the EC50 amounted to 17 nM in assay [6] and 15 nM in [8].
As for `CC(C)(CC(O)(Cn1ccc(=O)c2ccccc21)C(F)(F)F)c1ccccc1O` (stereo unspecified), the IC50 was found to be 555 nM in assay [1], 450 nM in [2], 6 nM in assay [4] and 6 nM in [3]. Also, in assay [5], the Efficacy amounted to 90%.
